Measurements: patent US20070197424A1, “Glatiramer acetate for use as an immuno-modulatory agent” (priority 2003, published 2007)
“Also recorded” adds a separate entry of the source.

Columns and labels:
[1] = test system: CCl4-fibrosis induced mice; test: CCl4-induced hepatic fibrosis in mice: liver injury and fibrosis assessment; format: in vivo, mouse; details: for liver injury (Ishak injury score): CCl4 fibrosis-induced mice, treated vs untreated; for hepatic fibrosis (Ishak liver fibrosis scoring, Bioquant analysis): compared to the CCl4 fibrosis-induced untreated group, Copaxone 200 microgram/day I.P. or Linomycin 1 mg/ml drinking water, last 2 weeks of 6 weeks CCl4
Method: (§1) Hepatic fibrosis was induced by IP CCl4 administration for 6 weeks in 8 week-old male wild-type C57Bl/6 mice. Within the last 2 weeks animals were also treated with either Copaxone 200 microgram/day I.P (Group A), Linomycin given by drinking water 1 mg/ml (Group B) or normal saline (group C), and were compared to naïve mice (Group D). Eight animals were included in each group. Hepatic fibrosis was evaluated by Ishak Knodell score [Knodell, R. G. et al., Hepatology 1981; 1(5):431-5], hydroxyproline and by analyzing 36 Sirius Red stained histological liver sections per animal with Bioquant® morphometry system. Splenocytes were isolated for FACS analysis from all animal groups. The correlation between hepatic fibrosis and CD4, CD8, NK cells, iKIR and aKIR expression on splenocytes was assessed.
Hepatic fibrosis animal model: Hepatic fibrosis was induced by IP CCl4 (10% as diluted with corn oil) administration 5 microliter/g body weight; for 4-6 weeks in 8 week-old male mice.
(§2) Liver and colon histology: The posterior one-third of the liver, the rectosigmoid colon were fixed in 10% formalin for 24 hours and then paraffin-embedded in an automated tissue processor. […] sections were cut from each animal specimen. Hematoxylin and eosin (H&E) staining was performed for each animal section.
Liver sections (15 μm) were stained in 0.1% Sirius Red F3B in saturated picric acid (both from Sigma). Additionally, alpha smooth muscle actin immunohistochemistry was performed using the DAKO kit (CAT# U7033 EPOS, Monoclonal) according to the manufacturer's instructions.
Hepatic Fibrosis quantitation: Relative fibrosis area (expressed as a % of total liver area) was assessed by analyzing 36 Sirius red-stained liver sections per animal. Each field was acquired at 10× magnification and then analyzed using a computerized Bioquant® morphometry system. To evaluate the relative fibrosis area, the measured collagen area was divided by the net field area and then multiplied by 100. Subtraction of vascular lumenal area from the total field area yielded the final calculation of the net fibrosis area.
Alpha smooth muscle actin immunoblot: Immunoblot analysis of Alpha-SMA in liver extracts is performed as previously described [de Waal Malefyt, R., et al., J. Exp. Med. 1991; 174:915-924] with modifications. Whole-liver protein extracts were prepared in liver homogenization buffer (50 mmol/L Tris-HCl [pH 7.6], 0.25% Triton-X 100, 0.15 M NaCl, 10 mM CaCl2 and complete mini EDTA-free protease inhibitor cocktail (Roche Diagnostics, Mannheim, Germany). Then proteins (30 μg per lane) were resolved on a 10% SDS-polyacrylamide gel under reducing conditions. For immunoblotting, proteins were transferred to a Protran membrane and incubated overnight at 4° C. in a blocking buffer containing 5% skim milk. Anti-SMA mouse monoclonal antibody (DAKO, cat# M0851) and peroxidase-conjugated goat anti-mouse IgG (P.A.R.I.S., Compiègne, France) and enhanced chemiluminescence were used.

splenocytes [2] = test: FACS analysis of splenocytes in CCl4-fibrosis induced mice; format: in vivo, mouse; details: for spleen CD4:CD8 ratio: vs CCl4-induced fibrosis untreated group, FIG. 7; for spleen total number of NK cells: vs untreated fibrotic and naive groups, FIG. 8
Method: as §1
(§3) Splenocyte isolation: Spleens were harvested at the time of sacrifice and fractionated through a 70-μm nylon cell strainer. After RBC lysis, splenocytes were washed, suspended in RPMI 1640 medium and stored at 4° C. until FACS analysis.
(§4) Fluorescent-activated cell sorting analysis (FACS): splenocytes are analysed by direct immunofluorescence reactivity with a series of antibodies (Abs) using standard techniques on a Coulter flow cytometer (BECTON DICKINSON, USA). Briefly, 3×10^5 spleen cells are incubated for 30 minutes at 4° C. with Abs conjugated to fluorescein isothiocyanate (FITC), phycoerythrin (PE) or allophycocyanin (APC), washed three times, and resuspended in fixative solution with 2% paraformaldehyde for analysis. Antibodies used for staining splenocytes are monoclonal anti-mouse CD4, CD8 conjugated by PE and FITC respectively (BD Biosciences). For staining natural killer (NK) cells APC-conjugated rat anti-mouse CD49b/Pan-NK cells monoclonal antibody which identifies the majority of NK cells is used. For killer inhibitory receptors (iKIR) monoclonal mouse anti-mouse Ly-49C and Ly-49I conjugated by PE are used. For the killer activating receptor (aKIR) FITC-conjugated rat anti-mouse LY-49D monoclonal antibody were used. To defined the role of T regulatory cells we used the anti CD25 monoclonal antibodies. To identify lymphocytes staining with peridinin chlorophyll-α protein (Per-CP)-conjugated rat anti-mouse CD45 (BD Biosciences) was used. Lymphocyte subsets are presented as percentage of the CD45+ cells.

intrahepatic lymphocytes = test: FACS analysis of intrahepatic lymphocytes in CCl4-fibrosis induced mice; format: in vivo, mouse
colitis-induced mice = test: TNBS-colitis in mice: macroscopic and microscopic colitis score; format: in vivo, mouse; details: treated vs control colitis-induced mice
Method: Each group includes 10 male animals.
(§5) Following Ketamine/Xylazine anesthesia, animals were sacrificed, and serum, colons are harvested at day 12. Blood samples are obtained and frozen at −20° C. until assayed for cytokine levels (IL2, IL4, IFNg, IL10 and TGFb). Splenocyte subpopulations are analyzed by FACS for CD4 and CD8, NK markers, and killer inhibitory and activation receptors. Colons are assessed for inflammatory severity.
Colitis induction as inflammatory bowel disease animal model: TNBS-colitis was induced by rectal instillation of TNBS, 1 mg/mouse, dissolved in 100 μl of 50% ethanol as described [Trop S, Samsonov D, Gotsman I, Alper R, Diment J and Ilan Y (1999) Hepatology 29: 746-755].
as §2

splenocytes [3] = test: FACS analysis of spleen cell populations in colitis-induced mice; format: in vivo, mouse
Method: as §5, §3, §4

serum cytokines = test: Serum cytokine levels in colitis-induced mice; format: in vivo, mouse; details: vs colitis-induced untreated group
Method: as §5

dendritic cells = details: through modulation of dendritic cells; cited from earlier work
skin and thyroid grafts = details: cited from earlier work
[4] = test system: graft-specific T cell lines; details: in vitro with stimulating allogeneic cells; cited from earlier work
[5] = test system: relapsing-remitting multiple sclerosis; details: cited from earlier work

Substance: glatiramer acetate [Copaxone]
- anti-fibrotic effect in the animal model ([1]; CCl4 fibrosis mouse model, overall conclusion): significant anti-fibrotic effect
- liver injury (Ishak injury score) ([1]; listed as Glatiramer acetate): reduced liver injury
- liver injury (Ishak injury score) ([1]; listed as copaxon): no significant difference
- liver injury (Ishak injury score) ([1]; listed as glatiramer acetate): significantly lower
- fibrosis severity, % of collagen in the analyzed area ([1]; after CCl4 fibrosis induction, p<0.0001, FIG. 4): significantly reduced
- hepatic fibrosis (Ishak liver fibrosis scoring, Bioquant analysis) [1]: significant reduction of fibrosis
- hepatic fibrosis (Ishak liver fibrosis scoring, Bioquant analysis) ([1]; listed as glatiramer acetate): significantly lower
- alpha smooth muscle actin amounts (Western blot, liver) ([1]; vs CCl4 animal group, FIG. 5): significantly reduced
- spleen CD4 cells (splenocytes [2]; between fibrotic groups A, B and C, FIG. 6): no significant changes
- spleen CD8 cells (splenocytes [2]; compared to group C (p<0.05) or D (p<0.005), FIG. 6): significantly decreased
- spleen NK aKIR:NK iKIR ratio (splenocytes [2]; compared to the naive group (group D), p<0.0001, FIG. 9): significant increase
- spleen NK aKIR:NK iKIR ratio (splenocytes [2]; compared to the untreated fibrotic group (group C), p<0.05, FIG. 9): significantly lower
- spleen CD4:CD8 ratio (splenocytes [2]): increased; also recorded: significantly elevated
- spleen CD4:CD8 ratio (splenocytes [2]; listed as A): significantly elevated
- spleen total number of NK cells (splenocytes [2]): elevated
- spleen total number of NK cells (splenocytes [2]; listed as A): increased number
- intrahepatic CD4 cells (intrahepatic lymphocytes; between fibrotic groups A and C, FIG. 10): no significant changes
- intrahepatic NK cells number (intrahepatic lymphocytes; compared to fibrosis group C, p<0.0001, FIG. 12): significantly increased
- intrahepatic CD8 cells (intrahepatic lymphocytes; compared to group C, p<0.001, FIG. 10): significantly decreased
- intrahepatic CD4:CD8 ratio (intrahepatic lymphocytes; compared to group C, p<0.002, FIG. 11): significantly elevated
- macroscopic colitis score (tissue injury) (colitis-induced mice; FIG. 13a): prominent reduction
- microscopic colitis score (tissue injury) (colitis-induced mice; FIG. 13b, p<0.03): prominent reduction
- CD4 IFN-γ secreting cells (splenocytes [3]; colitis induced-Copaxone treated group, p<0.02, FIG. 16): increase
- spleen CD4 cell number (splenocytes [3]; colitis induced-Copaxone treated group, p<0.03, FIG. 15): significant increase
- spleen CD8 cell populations (splenocytes [3]; colitis-induced mice, FIG. 15): unaffected
- antigen presenting cells (APC), spleen (splenocytes [3]; colitis-induced mice, FIG. 17): seemed to be reduced
- serum IL-10 level (serum cytokines; p<0.002, FIG. 18): significantly reduced
- serum IL-4 level (serum cytokines; p<0.004, FIG. 18): significantly reduced
- serum IFN-γ level (serum cytokines; p<0.006, FIG. 18): significantly reduced
- IL-10 production (dendritic cells): increase
- Th2 CD4 cell development (dendritic cells): promote
- skin graft survival (skin and thyroid grafts; skin grafting assay): prolonged
- functional deterioration of thyroid grafts (skin and thyroid grafts; thyroid grafting assay): inhibited
- interleukin-2 and interferon-gamma secretion of graft-specific T cell lines [4]: inhibited
- proliferation of graft-specific T cell lines [4]: inhibited
- disease activity and burden of disease (MRI measures) ([5]; European/Canadian study): significantly decrease
- tolerability ([5]; human, in vivo): generally well tolerated
- overall disability status ([5]; patients with RRMS): significantly improved
- efficacy by relapse rate, proportion of relapse-free patients, number of gadolinium-enhancing lesions ([5]; subcutaneous 20 mg/day, patients with RRMS): significantly effective
